# Literature values in patent US20020042084A1, “Detection of NAALADase inhibitors” (Boehringer Ingelheim Pharma KG, priority 2000, published 2002).
# Residues, ends and D or L forms follow the SMILES beside them.
# System: NAALADase
# Conditions: substrate specificity; Serval et al. 1992
row,hydrolysis by NAALADase,Structure (SMILES)
1,not hydrolyzed,CC(=O)NC(CC(=O)O)C(=O)NC(CCC(=O)O)C(=O)O [D-NAAG] (Ac-Asp-Glu-OH; configuration not given here)
2,not hydrolyzed,CC(=O)N[C@@H](CC(=O)N[C@@H](CCC(=O)O)C(=O)O)C(=O)O [β-NAAG]

row,Structure (SMILES),hydrolysis by NAALADase
1,C[C@H](N)C(=O)N[C@@H](CCC(=O)O)C(=O)O [Ala-Glu] (H-Ala-Glu-OH),not hydrolyzed
